Results taken from PubChem BioAssay (NCI).
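Values below derive from 48-hour exposures of cells grown in 96-well plates, with endpoints linearly interpolated between the two concentrations bracketing the appropriate inhibition level. Abbreviation: GI50, concentration required for 50% inhibition of growth. TGI marks complete inhibition of growth.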

Key:
Test in all cases: NCI tumour cell line growth inhibition, 48 h
786-0 renal = tested on: 786-0 renal
A498 renal = tested on: A498 renal
HL-60(TB) leukemia = tested on: HL-60(TB) leukemia
HOP-62 NSCLC = tested on: HOP-62 NSCLC
MDA-MB-231 breast = tested on: MDA-MB-231 breast
MDA-MB-435 = tested on: MDA-MB-435
NCI-H23 lung = tested on: NCI-H23 lung
NCI-H522 lung = tested on: NCI-H522 lung
SF-295 CNS = tested on: SF-295 CNS
SF-539 CNS = tested on: SF-539 CNS

SMILES	GI50 (786-0 renal) [nM]	TGI (786-0 renal) [nM]	GI50 (A498 renal) [nM]	TGI (A498 renal) [nM]	GI50 (HL-60(TB) leukemia) [nM]	TGI (HL-60(TB) leukemia) [nM]	GI50 (HOP-62 NSCLC) [nM]	TGI (HOP-62 NSCLC) [nM]	GI50 (MDA-MB-231 breast) [nM]	TGI (MDA-MB-231 breast) [nM]	GI50 (MDA-MB-435) [nM]	TGI (MDA-MB-435) [nM]	GI50 (NCI-H23 lung) [nM]	TGI (NCI-H23 lung) [nM]	GI50 (NCI-H522 lung) [nM]	TGI (NCI-H522 lung) [nM]	GI50 (SF-295 CNS) [nM]	TGI (SF-295 CNS) [nM]	GI50 (SF-539 CNS) [nM]	TGI (SF-539 CNS) [nM]
CSC1=Nc2c(c(C)c(-c3ccccc3)n2CCCN2CCCCC2)C2=NC(=O)C[C@H](C)N12	4480	36500	2600	9640	2510	> 19800	3110	15800	2590	> 30900	2970	10800	3080	> 46400	2550	9780	2540	9190	6070	70400
C[C@]12CCc3nc(Nc4cccc(O)c4)sc3C1=CC[C@@H]1[C@@H]2CC[C@]2(C)/C(=N\NC(N)=S)CC[C@@H]12	1440	4310	3010	15500	2530	8310	1860	4070	1750	4950	1760	4550	2780	8960	1700	3690	1200	3110	464	1840
CCOC(=O)[C@@H](C)C[C@H](Cc1ccccc1)NC(=O)c1nc([C@@H](C[C@H](C(C)C)N(C)C(=O)[C@@H](NC(=O)[C@H]2CCCCN2C)C(C)C)OC(C)=O)sc1CCOCc1ccccc1	80	1590	26.4	417	39.4	190	226	2910	175	1020	12.3	47.8	188	5600	29	319	49.9	1360	57.1	390
CC[C@@H]1[C@@H](C)O[C@@](O)([C@@H](C)[C@H](O)[C@H](C)[C@H]2OC(=O)/C=C/C=C/[C@H](C)[C@@H]([C@@H](C)[C@@H](O)[C@H](C)[C@@]3(O)C[C@@H](O[C@H]4C[C@@H](O)[C@H](O)C(C)O4)[C@H](CC)[C@@H](C)O3)OC(=O)/C=C/C=C/[C@@H]2C)C[C@H]1O[C@@H]1C[C@@H](O)[C@H](O)C(C)O1 (stereo not given in full)	125	464	59.6	131	70.8	140	73	171	58.6	139	86.7	261	65.5	149	88.5	303	61	132	70.8	182
Cc1ccc(Cl)cc1Nc1nc(C(F)(F)F)ccc1C(=O)N/N=C/c1cccnc1	2110	11400	2950	11700	1500	> 46000	4280	18500	2080	17400	3990	15700	5600	20300	6640	22500	1380	4510	2450	10000
Cc1cccc(-c2[nH]ncc2-c2ccc3ncccc3n2)n1	11100	> 25000	> 14100	> 25000	10000	> 23700	9590	> 25000	14500	> 25000	15400	> 25000	14200	> 25000	> 25000	> 25000	13700	> 25000	17400	> 25000
